US20050101518A1, “Methods of treating conditions associated with an EDG-2 receptor” (priority 2002, published 2005)
pIC50: −log10 of the molar value.

What was measured:
[1] = system: A431 human epitheloid carcinoma cells; assay: LPA-stimulated calcium mobilization in A431 human epitheloid carcinoma cells; type: cell-based; settings: for inhibition of LPA-stimulated calcium mobilization: 10 μM compound, FIG. 6
Source text: [The procedure below names another cell line; the source lists this cell line under the same test.] (§1) LPA receptors such as Edg-2, couple to calcium effector pathways, and result in increases in intracellular calcium following receptor activation (An, 1998, J. Cell. Biochem. Supp., 30-31: 147-157). This biological response lends itself to a very efficient, high-throughput screen using a Fluorescence Imaging Plate Reader (FLIPR; Molecular Devices, Sunnyvale, Calif.). The FLIPR system is a real-time, cell-based assay system with continuous fluorescence detection using a cooled CCD camera. The FLIPR system was used to developing an Edg-2 receptor screen. Rat hepatoma cells stably expressing Edg-2 receptor were plated on 384-well plates and loaded with a calcium dye loading kit (Molecular Devices, Sunnyvale, Calif.) for 1 hour at room temperature. Cells were then placed on the FLIPR^384 (Molecular Devices, Sunnyvale, Calif.) and excited by an argon laser at 488 nm. The data for the entire 384-well plate was updated every second. An integrated robotic pipettor allowed for simultaneous compound addition into each individual well in the plate.

[2] = system: Calcium Channel Type L, Dihydropyridine; settings: significance criteria ≧50% of max stimulation or inhibition; Table 2
Experimental: (§2) A radioligand binding assay was performed using adrenergic α1 according to the method of Greengrass and Bremner 1979, Eur. J. Pharmacol. 55:323-326. A radioligand binding assay was performed using adrenergic α2 according to the method of Boyajian and Leslie, 1987, J. Pharmacol. Exp. Ther. 241:1092-1098. A redioligand binding assay was performed using adrenergic β according to the method of Feve et al., 1994, Proc. Natl. Acad. Sci. USA 91:5677-5681. A radioligand binding assay was performed using angiotensin AT2 according to the method of Whitebread el al., 1991, Biochem. Biophys. Res. Comm. 181:1365-1371. A radioligand binding assay was performed using calcium channel Type L, dihydropyridine according to the method of Ehlert et al., 1982, Life Sci. 30:2191-2202. A radioligand binding assay was performed using dopamine D2L according to the method of Bunzo et al., 1988, Nature 336:783-787. A radioligand binding assay was performed using endothelin ETA according to the method of Mihara et al., 1994, J. Phrmacol. Exp Ther. 268:1122-1127. A radioligand binding assay was performed using histamine H1 Central according to the method of Hill et al., 1978, J. Neurochem. 31:997-1004. A radioligand binding assay was performed using Muscarinic non-selective, Central according to the method of Luthin and Wolfe, 1984, J. Pharmacol. Exp. Ther. 228:648-655. A radioligand binding assay was performed using serotonin 5-HT1, non-selective according to the method of Middlemiss, 1984, Eur. J. Pharmacol. 101:289-293).

[3] = system: Adrenergic α1, non-selective; settings: significance criteria ≧50% of max stimulation or inhibition; Table 2
Experimental: as §2

[4] = target: Angiotensin AT2 (Homo sapiens, UniProt P50052); settings: significance criteria ≧50% of max stimulation or inhibition; Table 2
Chain of Angiotensin AT2 (P50052 whole entry): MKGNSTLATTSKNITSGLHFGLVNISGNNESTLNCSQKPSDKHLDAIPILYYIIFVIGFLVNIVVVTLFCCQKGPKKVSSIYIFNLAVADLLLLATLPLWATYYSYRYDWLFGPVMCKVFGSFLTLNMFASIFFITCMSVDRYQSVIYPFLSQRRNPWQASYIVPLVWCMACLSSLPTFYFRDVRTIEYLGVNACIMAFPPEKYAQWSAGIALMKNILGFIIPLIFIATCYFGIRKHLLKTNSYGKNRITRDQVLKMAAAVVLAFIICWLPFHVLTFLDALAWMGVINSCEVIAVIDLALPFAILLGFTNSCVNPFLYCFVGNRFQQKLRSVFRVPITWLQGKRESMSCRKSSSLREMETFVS
Experimental: as §2

[5] = target: Endothelin ETA (Homo sapiens, UniProt P25101); settings: significance criteria ≧50% of max stimulation or inhibition; Table 2
Chain of Endothelin ETA (P25101 21-427): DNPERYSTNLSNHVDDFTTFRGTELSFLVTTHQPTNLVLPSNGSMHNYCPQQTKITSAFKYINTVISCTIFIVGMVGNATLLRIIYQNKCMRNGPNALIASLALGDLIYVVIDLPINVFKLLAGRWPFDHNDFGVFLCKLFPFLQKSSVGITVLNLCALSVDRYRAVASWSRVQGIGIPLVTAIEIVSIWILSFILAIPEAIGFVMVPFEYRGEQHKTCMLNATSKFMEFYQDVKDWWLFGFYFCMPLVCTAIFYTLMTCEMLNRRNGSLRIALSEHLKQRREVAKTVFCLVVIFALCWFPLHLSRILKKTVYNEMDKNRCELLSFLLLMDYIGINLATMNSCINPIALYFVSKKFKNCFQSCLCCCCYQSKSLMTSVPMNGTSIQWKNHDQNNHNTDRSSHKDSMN
Experimental: as §2

[6] = system: Muscarinic non-selective, Central; settings: significance criteria ≧50% of max stimulation or inhibition; Table 2
Experimental: as §2

[7] = target: Histamine H1, Central (Cavia porcellus, UniProt P31389); settings: significance criteria ≧50% of max stimulation or inhibition; Table 2
Chain of Histamine H1, Central (P31389 whole entry): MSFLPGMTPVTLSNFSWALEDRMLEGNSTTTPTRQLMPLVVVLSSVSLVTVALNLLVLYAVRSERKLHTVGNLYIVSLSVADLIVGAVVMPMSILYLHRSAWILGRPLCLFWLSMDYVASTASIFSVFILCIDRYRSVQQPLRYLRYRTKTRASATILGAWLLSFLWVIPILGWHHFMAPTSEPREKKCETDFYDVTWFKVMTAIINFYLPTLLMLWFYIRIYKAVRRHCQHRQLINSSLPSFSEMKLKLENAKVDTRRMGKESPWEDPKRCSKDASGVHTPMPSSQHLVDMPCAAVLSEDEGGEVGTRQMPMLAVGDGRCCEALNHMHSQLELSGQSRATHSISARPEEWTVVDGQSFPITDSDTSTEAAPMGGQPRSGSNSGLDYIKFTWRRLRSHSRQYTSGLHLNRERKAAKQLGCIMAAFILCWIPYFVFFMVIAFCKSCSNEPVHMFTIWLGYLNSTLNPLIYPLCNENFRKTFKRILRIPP
Experimental: as §2

[8] = system: Adrenergic β; settings: significance criteria ≧50% of max stimulation or inhibition; Table 2
Experimental: as §2

[9] = system: Serotonin 5-HT1, non-selective; settings: significance criteria ≧50% of max stimulation or inhibition; Table 2
Experimental: as §2

[10] = target: Dopamine D2L (Homo sapiens, UniProt P14416); settings: significance criteria ≧50% of max stimulation or inhibition; Table 2
Chain of Dopamine D2L (P14416 whole entry): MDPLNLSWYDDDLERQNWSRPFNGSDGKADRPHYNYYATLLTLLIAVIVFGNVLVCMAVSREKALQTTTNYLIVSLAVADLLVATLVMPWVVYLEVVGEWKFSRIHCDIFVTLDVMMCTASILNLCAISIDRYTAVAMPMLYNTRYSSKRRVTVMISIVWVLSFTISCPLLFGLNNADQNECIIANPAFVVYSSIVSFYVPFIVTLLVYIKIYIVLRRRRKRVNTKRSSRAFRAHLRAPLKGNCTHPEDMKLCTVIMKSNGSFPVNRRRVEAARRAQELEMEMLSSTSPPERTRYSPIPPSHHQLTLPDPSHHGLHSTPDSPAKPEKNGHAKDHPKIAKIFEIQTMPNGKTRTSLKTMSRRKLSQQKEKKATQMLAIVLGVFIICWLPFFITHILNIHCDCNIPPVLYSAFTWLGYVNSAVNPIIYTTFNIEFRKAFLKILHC
Experimental: as §2

[11] = system: Adrenergic α2; settings: significance criteria ≧50% of max stimulation or inhibition; Table 2
Experimental: as §2

[12] = target: T1, Edg 6 receptor (Homo sapiens, UniProt O95977); assay: Intracellular calcium measurement (FLIPR), S1P-stimulated calcium increases in HTC cells expressing Edg 6; type: cell-based; settings: for inhibition of S1P-stimulated calcium increases, Edg 6: FIG. 1 and 2; for pIC50: calcium mobilization
T1 construct: expressed in transfected cells; host or cells: HTC (rat hepatoma) cells
T1 sequence (O95977 1-384): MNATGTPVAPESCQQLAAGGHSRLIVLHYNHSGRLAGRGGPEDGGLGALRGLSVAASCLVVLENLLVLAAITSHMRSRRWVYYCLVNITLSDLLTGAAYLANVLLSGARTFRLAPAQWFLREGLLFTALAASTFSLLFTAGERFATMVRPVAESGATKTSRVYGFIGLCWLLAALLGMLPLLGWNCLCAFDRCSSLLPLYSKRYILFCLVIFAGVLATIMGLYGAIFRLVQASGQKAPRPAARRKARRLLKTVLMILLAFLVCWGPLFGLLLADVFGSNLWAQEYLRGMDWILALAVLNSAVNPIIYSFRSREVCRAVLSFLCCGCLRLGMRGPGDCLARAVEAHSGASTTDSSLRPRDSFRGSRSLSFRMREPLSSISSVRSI

[13] = system: various targets tested, including other GPCRs, ion channels, and enzymes; assay: Pharmacology profiling (selectivity assays) at various non-Edg targets; type: binding
Source text: Res. Comm. 181:1365-1371. […] Exp Ther. 268:1122-1127. […] 31:997-1004.

[14] = target: T2, Edg 3 receptor (Homo sapiens, UniProt Q99500); assay: Intracellular calcium measurement (FLIPR), S1P-stimulated calcium increases in HTC cells expressing Edg 3; type: cell-based; settings: FIG. 1 and 2
T2 construct: expressed in transfected cells; host or cells: HTC (rat hepatoma) cells
T2 sequence (Q99500 whole entry): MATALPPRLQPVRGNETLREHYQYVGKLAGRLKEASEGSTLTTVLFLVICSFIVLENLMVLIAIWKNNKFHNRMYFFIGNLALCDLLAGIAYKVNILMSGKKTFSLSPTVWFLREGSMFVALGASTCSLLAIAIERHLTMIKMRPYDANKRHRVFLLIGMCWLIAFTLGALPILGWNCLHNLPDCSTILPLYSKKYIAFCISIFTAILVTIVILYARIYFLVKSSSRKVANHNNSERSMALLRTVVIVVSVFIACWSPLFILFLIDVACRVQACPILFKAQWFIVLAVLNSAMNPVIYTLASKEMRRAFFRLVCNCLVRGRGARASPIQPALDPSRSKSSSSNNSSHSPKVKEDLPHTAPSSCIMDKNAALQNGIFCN

[15] = target: T3, Edg 8 receptor (Homo sapiens, UniProt Q9H228); assay: Intracellular calcium measurement (FLIPR), S1P-stimulated calcium increases in HTC cells expressing Edg 8; type: cell-based; settings: FIG. 1 and 2
T3 construct: expressed in transfected cells; host or cells: HTC (rat hepatoma) cells
T3 sequence (Q9H228 whole entry): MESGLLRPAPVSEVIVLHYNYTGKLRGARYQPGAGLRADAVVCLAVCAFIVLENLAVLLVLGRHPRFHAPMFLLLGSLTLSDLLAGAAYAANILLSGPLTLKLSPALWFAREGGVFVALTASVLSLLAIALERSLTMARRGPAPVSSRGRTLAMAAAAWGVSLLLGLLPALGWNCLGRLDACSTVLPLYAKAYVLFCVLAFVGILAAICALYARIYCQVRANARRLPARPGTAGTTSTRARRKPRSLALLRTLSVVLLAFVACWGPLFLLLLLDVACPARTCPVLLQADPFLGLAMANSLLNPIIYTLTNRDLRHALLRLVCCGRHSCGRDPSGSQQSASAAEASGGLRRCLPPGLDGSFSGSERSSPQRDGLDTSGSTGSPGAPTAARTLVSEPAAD

[16] = target: T4, Edg-7 receptor (Homo sapiens, UniProt Q9UBY5); assay: Intracellular calcium measurement (FLIPR), LPA-stimulated calcium increases in HTC cells expressing Edg-7; type: cell-based; settings: FIG. 1 and 2
T4 construct: expressed in transfected cells; host or cells: HTC (rat hepatoma) cells
T4 sequence (Q9UBY5 whole entry): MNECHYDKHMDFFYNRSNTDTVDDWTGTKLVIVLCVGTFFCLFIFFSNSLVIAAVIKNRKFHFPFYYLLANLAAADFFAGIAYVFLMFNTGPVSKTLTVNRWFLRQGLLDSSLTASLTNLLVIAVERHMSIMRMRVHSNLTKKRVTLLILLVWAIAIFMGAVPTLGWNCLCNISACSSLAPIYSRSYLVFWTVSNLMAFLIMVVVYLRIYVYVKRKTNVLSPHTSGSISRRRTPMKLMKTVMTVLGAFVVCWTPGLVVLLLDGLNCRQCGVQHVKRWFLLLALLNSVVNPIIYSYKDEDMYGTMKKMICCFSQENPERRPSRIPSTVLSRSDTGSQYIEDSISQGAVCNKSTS

[17] = target: T5, Edg-4 receptor (Homo sapiens, UniProt Q9HBW0); assay: Intracellular calcium measurement (FLIPR), LPA-stimulated calcium increases in HTC cells expressing Edg-4; type: cell-based; settings: FIG. 1 and 2
T5 construct: expressed in transfected cells; host or cells: HTC (rat hepatoma) cells
T5 sequence (Q9HBW0 whole entry): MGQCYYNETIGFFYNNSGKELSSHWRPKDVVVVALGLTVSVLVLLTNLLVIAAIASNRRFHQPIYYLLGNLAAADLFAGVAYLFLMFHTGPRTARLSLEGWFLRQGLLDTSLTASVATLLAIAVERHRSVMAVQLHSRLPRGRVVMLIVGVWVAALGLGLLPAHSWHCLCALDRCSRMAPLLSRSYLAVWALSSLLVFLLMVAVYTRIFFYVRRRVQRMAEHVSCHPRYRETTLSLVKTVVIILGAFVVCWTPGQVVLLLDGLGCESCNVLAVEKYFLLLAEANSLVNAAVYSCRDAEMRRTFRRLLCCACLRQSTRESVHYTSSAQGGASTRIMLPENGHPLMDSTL

[18] = target: T6, Edg 1 receptor (Homo sapiens, UniProt P21453); assay: Intracellular calcium measurement (FLIPR), S1P-stimulated calcium increases in HTC cells expressing Edg 1; type: cell-based; settings: FIG. 1 and 2
T6 construct: expressed in transfected cells; host or cells: HTC (rat hepatoma) cells
T6 sequence (P21453 whole entry): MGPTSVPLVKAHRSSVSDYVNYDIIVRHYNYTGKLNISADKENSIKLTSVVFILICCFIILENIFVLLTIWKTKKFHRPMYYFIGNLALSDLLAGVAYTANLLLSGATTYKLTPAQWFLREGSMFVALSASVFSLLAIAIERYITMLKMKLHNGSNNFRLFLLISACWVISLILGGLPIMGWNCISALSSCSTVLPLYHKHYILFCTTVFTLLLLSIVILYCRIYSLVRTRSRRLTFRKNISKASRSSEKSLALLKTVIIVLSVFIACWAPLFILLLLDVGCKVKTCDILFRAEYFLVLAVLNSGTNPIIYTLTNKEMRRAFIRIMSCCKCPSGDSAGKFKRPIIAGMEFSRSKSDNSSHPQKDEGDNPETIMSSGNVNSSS

[19] = target: T7, Edg 5 receptor (Homo sapiens, UniProt O95136); assay: Intracellular calcium measurement (FLIPR), S1P-stimulated calcium increases in HTC cells expressing Edg 5; type: cell-based; settings: FIG. 1 and 2
T7 construct: expressed in transfected cells; host or cells: HTC (rat hepatoma) cells
T7 sequence (O95136 whole entry): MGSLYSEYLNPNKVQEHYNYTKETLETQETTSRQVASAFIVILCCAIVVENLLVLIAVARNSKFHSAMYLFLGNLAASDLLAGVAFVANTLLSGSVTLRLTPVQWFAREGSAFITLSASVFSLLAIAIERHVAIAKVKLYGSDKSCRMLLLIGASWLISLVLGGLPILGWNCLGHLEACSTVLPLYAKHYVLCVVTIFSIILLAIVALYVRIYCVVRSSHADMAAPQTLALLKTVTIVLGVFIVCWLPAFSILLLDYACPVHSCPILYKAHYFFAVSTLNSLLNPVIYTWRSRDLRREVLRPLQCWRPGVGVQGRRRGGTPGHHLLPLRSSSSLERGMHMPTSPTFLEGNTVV

[20] = target: T8, Edg-2 receptor (Homo sapiens, UniProt Q92633); assay: Intracellular calcium measurement (FLIPR), LPA-stimulated calcium increases in rat hepatoma (HTC) cells stably expressing Edg-2; type: cell-based; settings: for inhibition of the Edg 2 receptor: FIG. 1 and 2; for pIC50: calcium mobilization, HTC cells expressing Edg 2; for Fold Selective: selectivity for Edg-2 relative to other Edg receptors
T8 construct: expressed in transfected cells
T8 sequence (Q92633 whole entry): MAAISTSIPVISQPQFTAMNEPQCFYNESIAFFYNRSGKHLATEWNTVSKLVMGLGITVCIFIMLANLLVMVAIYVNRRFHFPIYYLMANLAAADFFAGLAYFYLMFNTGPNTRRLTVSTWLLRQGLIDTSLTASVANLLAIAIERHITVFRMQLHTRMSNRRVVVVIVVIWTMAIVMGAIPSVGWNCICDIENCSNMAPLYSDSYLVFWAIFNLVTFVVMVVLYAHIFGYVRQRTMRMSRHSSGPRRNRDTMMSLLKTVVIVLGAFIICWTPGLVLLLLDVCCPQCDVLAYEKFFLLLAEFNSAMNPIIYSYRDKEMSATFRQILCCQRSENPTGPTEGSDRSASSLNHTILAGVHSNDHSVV
Source text: as §1

[21] = system: immortalized ovarian surface epithelial cells; assay: LPA-stimulated calcium mobilization in immortalized ovarian surface epithelial cells; type: cell-based; settings: 10 μM compound, FIG. 3
Source text: [The procedure below names another cell line; the source lists this cell line under the same test.] as §1

[22] = system: forskolin-stimulated cAMP production; assay: cAMP assay: LPA inhibition of forskolin-stimulated cAMP production; type: cell-based; settings: 10 μM compound; FIG. 4
Experimental: Cells were plated in a 96 well format. Treatments were performed directly without any serum starvation. The cells were treated with forskolin to induce cAMP production, followed by LPA or S1P doses in the range from 0.1-10 μM in serum free medium. Following a 30-minute incubation period, the cells were lysed and the level of cAMP was determined.
The cAMP assay was performed using the Tropix cAMP-Screen (Applied BioSystems, Foster City, Calif.). The screen is a competitive immunoassay that utilizes a 96 well assay plate precoated with an anti-cAMP antibody. Cell lysates were added to the precoated plate, along with a cAMP-AP conjugate and a secondary anti-cAMP antibody.
Detection was performed using a substrate solution and chemiluminescent readout. The level of chemiluminescence was inversely proportional to the level of cAMP and was calculated from a standard curve.

Row | Structure (SMILES) | inhibition of LPA-stimulated calcium mobilization [1] | inhibition of S1P-stimulated calcium increases, Edg 6 [12] | pIC50 [12] | activity at various targets tested, including other GPCRs, ion channels, and enzymes [13] | inhibition of S1P-stimulated calcium increases, Edg 3 [14] | inhibition of S1P-stimulated calcium increases, Edg 8 [15] | inhibition of LPA-stimulated calcium increases, Edg 7 [16] | inhibition of LPA-stimulated calcium increases, Edg 4 [17] | inhibition of S1P-stimulated calcium increases, Edg 1 [18] | inhibition of S1P-stimulated calcium increases, Edg 5 [19] | inhibition of the Edg 2 receptor [20] | pIC50 [20] | Fold Selective [20] | inhibition of LPA-stimulated calcium mobilization [21] | reversal of LPA inhibition of forskolin-stimulated cAMP production [22] | also measured
1 | CCOc1ccccc1N1C(=O)CC(N(O)c2ccc(F)cc2)C1=O (stereo not shown) [Compound 111, 1-(2-Ethoxyphenyl)-3-[(4-fluorophenyl)hydroxylamino]pyrrolidine-2,5-dione] | – | – | – | – | – | – | – | – | – | – | – | – | – | – | – | melting point: 123 to 124 °C
2 | CCOc1ccccc1N1C(=O)CC(N(O)c2ccccc2)C1=O (stereo not shown) [Compound 101, 1-(2-Ethoxyphenyl)-3-(hydroxyphenylamine)-pyrrolidine-2,5-dione] | inhibition | did not inhibit | < 4.70 | did not demonstrate any significant activity | did not inhibit | did not inhibit | did not inhibit | did not inhibit | did not inhibit | did not inhibit | specifically inhibit | 5.85 | >14.3 | – | – | inhibition of LPA-stimulated calcium mobilization, dose response to LPA ([1]; varying concentrations of compound (0-10 μM), FIG. 5): inhibition; activity in radioligand binding assay, Calcium Channels Type L, DHP [2]: no significant activity; activity in radioligand binding assay, Adrenergic Alpha 1, non-selective [3]: no significant activity; activity in radioligand binding assay, Angiotensin AT2 [4]: no significant activity; activity in radioligand binding assay, Endothelin ETA [5]: no significant activity; activity in radioligand binding assay, Muscarinic, non-selective, central [6]: no significant activity; activity in radioligand binding assay, H1 central [7]: no significant activity; activity in radioligand binding assay, Adrenergic Beta, non-selective [8]: no significant activity; activity in radioligand binding assay, Serotonin 5HT1 non-selective [9]: no significant activity; activity in radioligand binding assay, Dopamine D2L [10]: no significant activity; activity in radioligand binding assay, Adrenergic Alpha 2, non-selective [11]: no significant activity
3 | CCn1nc(C)c(-c2ccccc2O)c1-c1ccccc1 [Compound 103, 2(1-Ethyl-3-methyl-5-phenyl-1H-pyrazol-4-yl)phenol] | inhibition | did not inhibit | < 4.70 | did not demonstrate any significant activity | did not inhibit | did not inhibit | did not inhibit | did not inhibit | did not inhibit | did not inhibit | specifically inhibited | 6.19 | >31.3 | almost completely inhibited | reverses the inhibitory effects of LPA | –
4 | O=C(CC(=O)C(F)(F)F)Nc1cc(-c2ccccc2)n[nH]1 [Compound 201, 4,4,4-trifluoro-3-oxo-N-(5-phenyl-2H-pyrazol-3-yl)butyramide, reference compound] | not | – | – | – | – | – | – | – | – | – | – | – | – | little to no effect | little to no effect | –
